# Patent US11566022B2, “3-(5-methoxy-1-oxoisoindolin-2-yl)piperidine-2,6-dione derivatives and uses thereof” (NOVARTIS AG, priority 2019, dated 2023)
# Where two headings read alike, the source gives them in different places.
# Biological target: HiBit-WIZ fusion protein (Homo sapiens, UniProt O95785+Q96SW2)
# Assay: Quantification of WIZ protein levels in HiBit tag fusion protein assay (WIZ HiBit assay in 293T cells)
# Type: cell-based
# Parameters: Dmax: dose or concentration left out as unconfirmed
# Conditions: for DC50: WIZ HiBit assay in 293T cells, 10-point, 5-fold dose response, highest concentration 25 μM, about 18 hours, read-out: WIZ AC50; for remaining activity at up to 25 µM / WIZ Amax: DMSO-normalized, curve-fitted percentage of WIZ-HiBit remaining at 25 uM; for remaining activity at up to 25 µM: read-out: WIZ Amax; for % degradation of WIZ (100-Amax): at 25 uM
# [1] = HEK-293T, 100 minus Amax, 293T cells, read-out: % degradation of WIZ (100-Amax)
# Chain of HiBit-WIZ fusion protein (O95785 whole entry, the tested form may be a part): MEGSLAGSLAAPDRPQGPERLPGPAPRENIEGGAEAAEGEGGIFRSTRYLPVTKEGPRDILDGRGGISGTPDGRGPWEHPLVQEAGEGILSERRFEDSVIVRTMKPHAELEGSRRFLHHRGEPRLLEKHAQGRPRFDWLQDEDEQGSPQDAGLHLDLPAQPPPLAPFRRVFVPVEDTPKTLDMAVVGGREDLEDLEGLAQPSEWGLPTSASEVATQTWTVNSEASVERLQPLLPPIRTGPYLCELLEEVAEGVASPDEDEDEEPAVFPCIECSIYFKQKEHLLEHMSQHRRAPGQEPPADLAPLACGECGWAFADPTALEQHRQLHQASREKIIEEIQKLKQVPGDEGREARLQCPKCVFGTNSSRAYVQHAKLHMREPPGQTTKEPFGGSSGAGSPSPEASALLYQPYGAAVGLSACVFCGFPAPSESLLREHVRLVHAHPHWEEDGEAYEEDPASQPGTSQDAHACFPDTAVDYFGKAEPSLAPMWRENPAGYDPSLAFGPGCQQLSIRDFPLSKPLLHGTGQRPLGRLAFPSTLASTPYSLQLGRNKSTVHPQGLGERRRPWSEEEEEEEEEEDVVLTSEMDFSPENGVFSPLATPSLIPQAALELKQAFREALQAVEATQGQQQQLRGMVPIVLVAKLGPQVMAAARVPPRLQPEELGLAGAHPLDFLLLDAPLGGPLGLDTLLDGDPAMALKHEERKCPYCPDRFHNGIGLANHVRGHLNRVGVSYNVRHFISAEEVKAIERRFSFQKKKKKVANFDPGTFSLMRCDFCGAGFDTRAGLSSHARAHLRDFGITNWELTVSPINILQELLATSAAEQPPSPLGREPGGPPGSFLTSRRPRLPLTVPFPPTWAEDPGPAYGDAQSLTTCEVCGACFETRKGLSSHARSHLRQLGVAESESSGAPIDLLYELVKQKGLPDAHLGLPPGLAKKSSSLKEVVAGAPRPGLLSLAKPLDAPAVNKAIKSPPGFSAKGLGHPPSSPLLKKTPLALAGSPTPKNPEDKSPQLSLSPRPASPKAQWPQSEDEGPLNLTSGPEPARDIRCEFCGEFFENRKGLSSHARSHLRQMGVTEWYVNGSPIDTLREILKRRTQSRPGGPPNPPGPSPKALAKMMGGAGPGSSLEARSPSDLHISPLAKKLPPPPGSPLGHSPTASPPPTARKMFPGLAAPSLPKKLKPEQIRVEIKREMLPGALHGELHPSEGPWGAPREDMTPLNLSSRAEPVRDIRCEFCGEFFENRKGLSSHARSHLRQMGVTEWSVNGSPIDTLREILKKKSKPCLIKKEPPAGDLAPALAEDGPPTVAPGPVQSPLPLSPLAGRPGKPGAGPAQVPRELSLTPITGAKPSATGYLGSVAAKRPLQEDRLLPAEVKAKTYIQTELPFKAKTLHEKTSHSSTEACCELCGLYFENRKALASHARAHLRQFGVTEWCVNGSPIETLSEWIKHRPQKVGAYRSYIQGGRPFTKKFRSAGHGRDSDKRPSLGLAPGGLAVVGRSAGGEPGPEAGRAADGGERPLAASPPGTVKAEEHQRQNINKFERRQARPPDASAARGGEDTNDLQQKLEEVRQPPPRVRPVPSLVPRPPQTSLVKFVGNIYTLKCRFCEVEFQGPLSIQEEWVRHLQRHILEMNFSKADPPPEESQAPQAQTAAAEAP
# Chain of HiBit-WIZ fusion protein (Q96SW2 whole entry, the tested form may be a part): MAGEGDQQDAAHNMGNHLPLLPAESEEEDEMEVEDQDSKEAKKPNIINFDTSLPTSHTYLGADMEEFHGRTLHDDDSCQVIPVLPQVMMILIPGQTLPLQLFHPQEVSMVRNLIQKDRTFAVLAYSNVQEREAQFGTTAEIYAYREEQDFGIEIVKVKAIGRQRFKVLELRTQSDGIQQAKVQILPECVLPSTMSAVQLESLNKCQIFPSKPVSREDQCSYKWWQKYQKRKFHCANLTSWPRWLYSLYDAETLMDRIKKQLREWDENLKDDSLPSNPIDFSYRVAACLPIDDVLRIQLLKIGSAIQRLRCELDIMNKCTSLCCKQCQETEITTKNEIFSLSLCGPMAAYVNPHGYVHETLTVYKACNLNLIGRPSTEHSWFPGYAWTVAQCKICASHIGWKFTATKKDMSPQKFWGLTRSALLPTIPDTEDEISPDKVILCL
# Chain of HiBit-WIZ fusion protein (Q16531 whole entry partner, the tested form may be a part): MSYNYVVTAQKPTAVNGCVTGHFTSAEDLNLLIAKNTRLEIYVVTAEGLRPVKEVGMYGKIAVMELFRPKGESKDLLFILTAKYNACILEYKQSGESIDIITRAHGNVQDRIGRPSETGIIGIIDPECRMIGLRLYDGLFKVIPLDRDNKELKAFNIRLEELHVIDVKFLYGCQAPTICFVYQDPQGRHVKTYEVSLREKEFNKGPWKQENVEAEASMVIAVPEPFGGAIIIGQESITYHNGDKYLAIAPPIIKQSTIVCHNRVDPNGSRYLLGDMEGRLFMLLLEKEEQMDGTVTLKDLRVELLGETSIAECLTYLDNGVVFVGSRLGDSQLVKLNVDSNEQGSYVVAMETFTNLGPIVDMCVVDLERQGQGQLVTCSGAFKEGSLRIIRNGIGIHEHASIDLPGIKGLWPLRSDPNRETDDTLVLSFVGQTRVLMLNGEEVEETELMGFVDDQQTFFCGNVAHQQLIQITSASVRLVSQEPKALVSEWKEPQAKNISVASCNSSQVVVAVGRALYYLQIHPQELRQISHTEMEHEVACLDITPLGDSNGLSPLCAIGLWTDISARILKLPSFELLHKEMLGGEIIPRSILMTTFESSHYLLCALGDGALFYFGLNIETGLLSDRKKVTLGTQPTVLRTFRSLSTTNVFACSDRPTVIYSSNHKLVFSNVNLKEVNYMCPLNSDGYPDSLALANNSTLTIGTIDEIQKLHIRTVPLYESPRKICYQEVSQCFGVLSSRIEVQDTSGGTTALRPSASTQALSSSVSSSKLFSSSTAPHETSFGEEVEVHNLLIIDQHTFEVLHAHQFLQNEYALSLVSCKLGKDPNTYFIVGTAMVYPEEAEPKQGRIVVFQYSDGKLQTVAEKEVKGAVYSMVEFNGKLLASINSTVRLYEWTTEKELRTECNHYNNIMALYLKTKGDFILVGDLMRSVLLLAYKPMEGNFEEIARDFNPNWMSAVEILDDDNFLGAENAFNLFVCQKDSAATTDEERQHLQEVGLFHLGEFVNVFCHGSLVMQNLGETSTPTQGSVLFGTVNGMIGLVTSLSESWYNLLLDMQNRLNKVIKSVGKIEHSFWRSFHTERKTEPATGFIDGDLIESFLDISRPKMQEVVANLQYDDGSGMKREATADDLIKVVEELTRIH
SMILES,"Dmax (HEK-293T, read-out: % degradation of WIZ (100-Amax), 100 minus Amax, 293T cells)","remaining activity (HEK-293T, read-out: WIZ Amax, DMSO-normalized, curve-fitted percentage of WIZ-HiBit remaining at 25 uM, 293T cells)",DC50,Dmax [1],"remaining activity at up to 25 µM (HEK-293T, 293T cells)","% degradation of WIZ (100-Amax) (100 minus Amax, 293T cells)",WIZ Amax (293T cells)
"O=C1CCC(N2Cc3cc(OC[C@H]4CCCCN4Cc4ccc5c(c4)OCO5)ccc3C2=O)C(=O)N1 (stereo partly drawn) [Compound I-137, 3-(5-(((R)-1-(benzo[d][1,3]dioxol-5-ylmethyl)piperidin-2-yl)methoxy)-1-oxoisoindolin-2-yl)piperidine-2,6-dione]",90%,10%,0.0015 µM,–,–,–,–
N#Cc1ccc(CCC(=O)N2CCCC[C@H]2COc2ccc3c(c2)CN(C2CCC(=O)NC2=O)C3=O)cc1 (stereo partly drawn) [Compound I-72gh],–,–,> 25 µM,10.9%,89.1%,–,–
Cc1noc(-c2ccc(C(=O)N3CCCC[C@H]3COc3ccc4c(c3)CN(C3CCC(=O)NC3=O)C4=O)cc2)n1 (stereo partly drawn) [Compound I-72ar],–,–,2.57 µM,71.8%,28.2%,–,–
CCOC(=O)c1n[nH]cc1CN1CCCC[C@@H]1COc1ccc2c(c1)CN(C1CCC(=O)NC1=O)C2=O (stereo partly drawn) [Compound I-50ch],–,–,9.24 µM,59.1%,40.9%,–,–
O=C1CCC(N2Cc3cc(OC[C@@H]4CCCCN4C(=O)CN4CCCCC4)ccc3C2=O)C(=O)N1 (stereo partly drawn) [Compound I-72jq],–,–,> 25 µM,11.7%,88.3%,–,–
CC(C)N1CCC(CC(=O)N2CCCC[C@H]2COc2ccc3c(c2)CN(C2CCC(=O)NC2=O)C3=O)CC1 (stereo partly drawn) [Compound I-72fe],–,–,> 25 µM,18.5%,81.5%,–,–
"CCN1CCN(c2ccc(CN3CCCC[C@@H]3COc3ccc4c(c3)CN(C3CCC(=O)NC3=O)C4=O)cn2)CC1 (stereo partly drawn) [Compound I-191, 3-(5-(((R)-1-((6-(4-ethylpiperazin-1-yl)pyridin-3-yl)methyl)piperidin-2-yl)methoxy)-1-oxoisoindolin-2-yl)piperidine-2,6-dione]",–,–,0.15 µM,67.2%,32.9%,–,–
O=C1CCC(N2Cc3cc(OC[C@@H]4CCCCN4C(=O)c4cccc(N5CCCC5=O)c4)ccc3C2=O)C(=O)N1 (stereo partly drawn) [Compound I-72hf],–,–,> 25 µM,6.8%,93.2%,–,–
CCn1cc(CN2CCCC[C@@H]2COc2ccc3c(c2)CN(C2CCC(=O)NC2=O)C3=O)cn1 (stereo partly drawn) [Compound I-50eo],–,–,0.074 µM,94%,6%,–,–
"O=C1CCC(N2Cc3cc(OC[C@H]4CCCCN4CC4CCOC4)ccc3C2=O)C(=O)N1 (single isomer, unassigned) [Compound I-213]",–,–,0.12 µM,–,–,55.68%,44.32%
Cn1c(CN2CCCC[C@@H]2COc2ccc3c(c2)CN(C2CCC(=O)NC2=O)C3=O)nc2ccccc21 (stereo partly drawn) [Compound I-50cw],–,–,> 25 µM,39%,61%,–,–
O=C1CCC(N2Cc3cc(OC[C@H]4CCCCN4Cc4cccnc4F)ccc3C2=O)C(=O)N1 (stereo partly drawn) [Compound I-149],–,–,11.4 µM,56.9%,43.1%,–,–
O=C1CCC(N2Cc3cc(OC[C@@H]4CCCCN4Cc4cccc(N5CCOCC5)n4)ccc3C2=O)C(=O)N1 (stereo partly drawn) [Compound I-50bo],–,–,20.8 µM,57.4%,42.6%,–,–
O=C1CCC(N2Cc3cc(OC[C@@H]4CCCCN4C(=O)c4cccc(Cn5cncn5)c4)ccc3C2=O)C(=O)N1 (stereo partly drawn) [Compound I-72bi],–,–,> 25 µM,3.9%,96.1%,–,–
O=C1CCC(N2Cc3cc(OC[C@H]4CCCCN4Cc4ccc(-n5nccn5)cc4)ccc3C2=O)C(=O)N1 (stereo partly drawn) [Compound I-50eg],–,–,0.004 µM,99.6%,0.4%,–,–
CN(C)Cc1ncc(-c2ccc(Oc3cc(Cl)cnc3CN3CCCC[C@@H]3COc3ccc4c(c3)CN(C3CCC(=O)NC3=O)C4=O)cc2)n1C (stereo partly drawn) [Compound I-50di],–,–,1.18 µM,79%,21%,–,–
O=C1CCC(N2Cc3cc(OC[C@H]4CCCCN4Cc4cc(F)c(F)c(F)c4)ccc3C2=O)C(=O)N1 (stereo partly drawn) [Compound I-144],–,–,0.076 µM,93.7%,6.3%,–,–
O=C1CCC(N2Cc3cc(OC[C@H]4CCCCN4Cc4ccc(F)cc4Cl)ccc3C2=O)C(=O)N1 (stereo partly drawn) [Compound I-114],–,–,0.018 µM,94.5%,5.54%,–,–
CN(C)c1ncc(CN2CCCC[C@@H]2COc2ccc3c(c2)CN(C2CCC(=O)NC2=O)C3=O)cn1 (stereo partly drawn) [Compound I-50ar],–,–,1.14 µM,78.2%,21.8%,–,–
O=C1CCC(N2Cc3cc(OC[C@H]4CCCCN4Cc4ccc(Cn5ccnc5)cc4)ccc3C2=O)C(=O)N1 (stereo partly drawn) [Compound I-50ek],–,–,0.004 µM,99.1%,0.9%,–,–
"CCN1CCC(F)(F)CC1COc1ccc2c(c1)CN(C1CCC(=O)NC1=O)C2=O (single isomer, unassigned) [I-252 (Isomer 3), 3-(5-((1-ethyl-4,4-difluoropiperidin-2-yl)methoxy)-1-oxoisoindolin-2-yl)piperidine-2,6-dione]",–,–,0.045 µM,–,–,55.1%,44.9%

SMILES,"Dmax (HEK-293T, read-out: % degradation of WIZ (100-Amax), 100 minus Amax, 293T cells)","remaining activity (HEK-293T, read-out: WIZ Amax, DMSO-normalized, curve-fitted percentage of WIZ-HiBit remaining at 25 uM, 293T cells)",DC50,Dmax [1],"remaining activity at up to 25 µM (HEK-293T, 293T cells)","% degradation of WIZ (100-Amax) (100 minus Amax, 293T cells)",WIZ Amax (293T cells)
O=C1CCC(N2Cc3cc(OC[C@@H]4CCCCN4Cc4cnn(Cc5ccccc5)c4)ccc3C2=O)C(=O)N1 (stereo partly drawn) [Compound I-50ck],–,–,0.766 µM,83.2%,16.8%,–,–
O=C1CCC(N2Cc3cc(OC[C@@H]4CCCCN4C(=O)Cc4cc[nH]n4)ccc3C2=O)C(=O)N1 (stereo partly drawn) [Compound I-72af],–,–,> 25 µM,7.7%,92.3%,–,–
Cc1nccn1-c1ccc(CN2CCCC[C@@H]2COc2ccc3c(c2)CN(C2CCC(=O)NC2=O)C3=O)cc1 (stereo partly drawn) [Compound I-50ew],–,–,0.026 µM,99.3%,0.7%,–,–
O=C1CCC(N2Cc3cc(OC[C@@H]4CCCCN4C(=O)c4csc(N5CCOCC5)n4)ccc3C2=O)C(=O)N1 (stereo partly drawn) [Compound I-72e],–,–,> 25 µM,17.1%,82.9%,–,–
C[C@H]1CC[C@H](CC(=O)N2CCCC[C@H]2COc2ccc3c(c2)CN(C2CCC(=O)NC2=O)C3=O)CC1 (stereo partly drawn) [Compound I-72do],–,–,> 25 µM,23.3%,76.7%,–,–
COc1cccc2c(C(=O)N3CCCC[C@H]3COc3ccc4c(c3)CN(C3CCC(=O)NC3=O)C4=O)c[nH]c12 (stereo partly drawn) [Compound I-72cq],–,–,> 25 µM,31.1%,68.9%,–,–
O=C1CCC(N2Cc3cc(OC[C@@H]4CCCCN4C(=O)[C@H]4CCOC4)ccc3C2=O)C(=O)N1 (stereo partly drawn) [Compound I-72fn],–,–,> 25 µM,2.6%,97.4%,–,–
O=C1CCC(N2Cc3cc(OC[C@H]4CCCCN4Cc4ccc(F)cc4)ccc3C2=O)C(=O)N1 (stereo partly drawn) [Compound I-113],–,–,0.0038 µM,99.4%,0.64%,–,–
CN(C)CC(=O)N1CCCC[C@H]1COc1ccc2c(c1)CN(C1CCC(=O)NC1=O)C2=O (stereo partly drawn) [Compound I-72jk],–,–,> 25 µM,7.2%,92.8%,–,–
COc1ccncc1C(=O)N1CCCC[C@H]1COc1ccc2c(c1)CN(C1CCC(=O)NC1=O)C2=O (stereo partly drawn) [Compound I-72bc],–,–,> 25 µM,3%,97%,–,–
O=C1CCC(N2Cc3cc(OC[C@H]4CCCCN4Cc4ccc(N5CCCC5)nc4)ccc3C2=O)C(=O)N1 (stereo partly drawn) [Compound I-50es],–,–,0.003 µM,99.5%,0.5%,–,–
"COc1ccc(CN2CCCC[C@@H]2COc2ccc3c(c2)CN(C2CCC(=O)NC2=O)C3=O)c(OC)c1 (stereo partly drawn) [Compound I-131, 3-(5-(((R)-1-(2,4-dimethoxybenzyl)piperidin-2-yl)methoxy)-1-oxoisoindolin-2-yl)piperidine-2,6-dione]",–,–,0.00052 µM,88.9%,11.1%,–,–
"COc1ccc(CN2CCCC[C@@H]2COc2ccc3c(c2)CN(C2CCC(=O)NC2=O)C3=O)cc1C#N (stereo partly drawn) [Compound I-196, 5-(((2R)-2-(((2-(2,6-dioxopiperidin-3-yl)-1-oxoisoindolin-5-yl)oxy)methyl)piperidin-1-yl)methyl)-2-methoxybenzonitrile]",–,–,0.0042 µM,78.8%,21.2%,–,–
Cc1nc(C)c(CN2CCCC[C@@H]2COc2ccc3c(c2)CN(C2CCC(=O)NC2=O)C3=O)s1 (stereo partly drawn) [Compound I-145],–,–,0.019 µM,97.3%,2.68%,–,–
COc1ccc(CC(=O)N2CCCC[C@H]2COc2ccc3c(c2)CN(C2CCC(=O)NC2=O)C3=O)cn1 (stereo partly drawn) [Compound I-72hk],–,–,> 25 µM,9.2%,90.8%,–,–
Cc1ncc(CN2CCCC[C@@H]2COc2ccc3c(c2)CN(C2CCC(=O)NC2=O)C3=O)[nH]1 (stereo partly drawn) [Compound I-50bp],–,–,7 µM,65.9%,34.1%,–,–
O=C1CCC(N2Cc3cc(OC[C@@H]4CCCCN4Cc4ccc[nH]c4=O)ccc3C2=O)C(=O)N1 (stereo partly drawn) [Compound I-50k],–,–,> 25 µM,34.7%,65.3%,–,–
CC(C)(C#N)c1cc(C(=O)N2CCCC[C@H]2COc2ccc3c(c2)CN(C2CCC(=O)NC2=O)C3=O)ccn1 (stereo partly drawn) [Compound I-72be],–,–,> 25 µM,11.8%,88.2%,–,–
CCCc1cc(C(=O)N2CCCC[C@H]2COc2ccc3c(c2)CN(C2CCC(=O)NC2=O)C3=O)no1 (stereo partly drawn) [Compound I-72au],–,–,> 25 µM,39.9%,60.1%,–,–
N#Cc1cccc(CN2CCCC[C@H]2COc2ccc3c(c2)CN(C2CCC(=O)NC2=O)C3=O)c1 (stereo partly drawn) [Compound I-50bm],–,–,> 25 µM,36%,64%,–,–
